In test [1] the test system is MC38 murine colon adenocarcinoma. The test is described as follows: Therapeutic efficacy in combination with doxorubicin in MC38 model. It counts as in vivo, C57BL/6 mice. Here is the method:
Therapeutic efficacy of PNP-R848 in combination with chemotherapy was also assessed (FIG. 8). […] Despite some promising initial results, all mice treated with doxorubicin, both with or without PNP-R848, succumbed after re-challenge with a 3-fold higher dose of cancer cells.
Therapeutic efficacy in combination with doxorubicin. Mice were implanted with 1 × 10^6 MC38 cells subcutaneously into the right flank, which were allowed to grow to an average size of ~30-40 mm^3. The mice received intratumoral treatments every other day for a total of 3 times. The treatment groups included: 8% sucrose (n = 6), free doxorubicin (n = 6), and doxorubicin + PNP-R848 (n = 6). Mice received 63 µg of doxorubicin and 15 µg of R848 per dose. For the combination treatment, doxorubicin and PNP-R848 were mixed pre-administration and the animal received one intratumoral injection containing both. Tumor growth and mouse weight were monitored every other day. Progression-free survival was defined as tumor volume < 200 mm^3. All the mice that rejected the initial MC38 inoculum were re-challenged subcutaneously using 3 × 10^6 MC38 cells on day 56 after the start of the first treatment. Five naive C57BL/6 mice that received the same MC38 tumor cell challenge were used as controls to verify tumorigenicity.

Test [2] has the same test system. The test is described as follows: Therapeutic efficacy in a murine MC38 tumor model (15 µg and reduced 6 µg R848 dosage). It counts as in vivo, C57BL/6 mice. The conditions noted are these: for long-term survival rate: intratumoral, every other day x3. Here is the method:
The antitumor efficacy of PNP-R848 was evaluated using an MC38 murine colon adenocarcinoma model in immunocompetent C57BL/6 mice (FIG. 4a). Each animal received a subcutaneous injection of 1 × 10^6 MC38 cells in the right flank, and the average tumor size was allowed to reach ~30-40 mm^3. At this point, the mice started receiving one of the following treatments: 8% sucrose as a negative control, free R848, PEG-NP loaded with R848 (PEG-NP-R848), or PNP-R848, each at a drug dosage of 15 µg per injection. Treatments were administered intratumorally every other day for a total of 3 times, after which the mice were monitored regularly to assess therapeutic efficacy (FIGS. 4b-e). […] Tumor growth was considerably delayed when treating with either free R848 or PEG-NP-R848, but there was significant disease progression in a majority of the mice by approximately 30 days after the start of treatment. […] Treatment efficacy was also evaluated when reducing the drug dosage by 2.5-fold to 6 µg of R848 per injection (FIG. 6).
In order to determine if the surviving animals had developed long-term immunity against MC38 cancer cells, the mice were re-challenged with a 3-fold higher inoculum subcutaneously into the right flank 56 days after initiation of the first treatment (FIGS. 4c,d). For the survivors that had been treated with either dose of PNP-R848, the second tumor challenge was rejected at a 100% rate. […] The remainder of the surviving animals in the other groups all rejected the re-challenge, with no tumor progression observed at least 100 days after the start of the initial treatment.
Therapeutic efficacy in a murine MC38 tumor model. Mice were implanted with 1 × 10^6 MC38 cells subcutaneously into the right flank, which were allowed to grow to an average size of ~30-40 mm^3. The mice were then intratumorally treated every other day for a total of 3 times. […] Tumor growth and mouse weight were monitored every other day. […]
Therapeutic efficacy in a murine MC38 tumor model at a reduced R848 dosage. […] Tumor growth and mouse weight were monitored every other day. […]

For `COc1cccc2c1C(=O)c1c(O)c3c(c(O)c1C2=O)C[C@@](O)(C(=O)CO)C[C@@H]3O[C@H]1C[C@H](N)[C@H](O)[C@H](C)O1` [doxorubicin], in test [1] (63 µg doxorubicin intratumoral x3), the survival entry is reported as “prolonged survival, the improvement was modest”. Further, the outcome after re-challenge in test [1] (3-fold higher dose of cancer cells, day 56) is “succumbed”.

In the case of `CCOCc1nc2c(N)nc3ccccc3c2n1CC(C)(C)O` [free R848, Resiquimod], the values for the long-term survival rate in test [2] (6 µg R848 per injection) and in test [2] (15 µg R848 per injection) were 62.5% and 28.6%, respectively. Moreover, the “overall survival after the tumor re-challenge” value in test [2] (6-µg dosage, 3-fold higher inoculum, day 56) came to 37.5%.

The values above are taken from patent publication US20230310504A1, “PLATELET MEMBRANE COATED NANOPARTICLES AND USES THEREOF” (CELLO THERAPEUTICS, INC., priority 2020, published 2023).
